According to patent US20170107531A1, “ISOLATED NUCLEIC ACIDS AND QU[…] LOCI (QTL) FROM S. HA[…] METHODS OF USE THEREOF FOR […] BACTERIAL SPECK DISEASE IN TOMATO AND OTHER PLANTS” (Boyce Thompson Institute, priority 2015, published 2017):

What was measured:
[1] = test system: reactive oxygen species (ROS) in LA2109; assay: Reactive oxygen species (ROS) elicitation by MAMP peptides, luminescence-based assay; format: cell-based, Solanum habrochaites accession LA2109; settings: for PTI-eliciting activity of synthetic peptide: FIG. 2D, FIGS. 3C-E, also Cai et al., 2011; for ROS elicitation (relative light units): LA2109, FIG. 3C
Description: FIG. 3A-FIG. 3E. […] (FIG. 3A) Bacterial speck disease on leaves of LA2109 four days after inoculation with Pst19 or Pst19ΔavrPtoB. (FIG. 3B) Bacterial populations of Pst19 and Pst19ΔavrPtoB in leaves of LA2109. Error bars indicate standard deviation. Testing the possible response of LA2109 to FlgII-28, effector HopAO1, and coronatine. […] ROS was measured as relative light units using a luminescence-based assay. […] Strain NY-T1 was included as a virulent control. All strains were inoculated at 2×10^5 CFU/mL. (FIG. 3E) Coronatine (1.25 nM) was syringe-infiltrated into leaves of LA2109 and Moneymaker (red arrows). Leaves of LA2109 were not observably more sensitive to this phytotoxin.

[2] = test system: Solyc02g072470 transcript abundance; assay: Solyc02g072470 transcript abundance in leaves after MAMP treatment (qRT-PCR), LA2109; format: in vivo, Solanum habrochaites accession LA2109
Description: (§1) Two lateral leaflets on the second leaf of 3-week old tomato plants were syringe-infiltrated with 1 uM FlgII-28 ([…]) (SEQ ID NO. 1) (Cal, et al., 2011) or 10 uM Csp22 ([…]) (SEQ ID NO. 2) (Felix and Boller, 2003) and harvested 6 hrs later. Tissue samples were immediately frozen in liquid nitrogen and kept at −80° C. until use. Six-week-old plants were inoculated with 10^5 colony-forming units (CFU)/mL P. syringae pv. tomato T1 by vacuum infiltration for the visual monitoring of disease symptoms and 10^4 CFU/mL for the measurement of bacterial populations. For each replicate, three leaf discs were collected and combined; each experiment involved replicates from three independent plants.
(§2) Leaf tissue was ground in liquid nitrogen and total RNA was extracted with TRIzol reagent following the manufacturer's instructions (Life Technologies, cat. #15596-018). The concentration of total RNA was determined with a Nanodrop spectrophotometer (Thermo Scientific Co.). RNA (lug) was treated with TURBO DNA-free™ Kit (Life Technologies, cat. AM1907M) and tested for DNA contamination by amplifying SlCBL1 (Solyc12g015870) for 25 cycles; no PCR product was detected. The RNA was then used for reverse transcription PCR (RT-PCR). […] 1 μl and 0.4 μl of cDNA templates were used for RT-PCR and quantitative-RT-PCR (qRT-PCR), respectively. […]

[3] = test system: Solyc02g072470 transcript abundance; assay: Solyc02g072470 transcript abundance in leaves after MAMP treatment (qRT-PCR), RG-PtoS; format: in vivo, tomato (Rio Grande RG-PtoS)
Description: as §1, §2

[4] = test system: reactive oxygen species (ROS) in LA2109; settings: Veluchamy et al., 2014; cited from earlier work
[5] = 1 uM FlgII-28, 6 hours after treatment, vs 10 mM MgCl2 mock
[6] = 10 uM Csp22, 6 hours after treatment

Substance	PTI-eliciting activity of synthetic peptide [1]	ROS elicitation (relative light units) [1]	further results
FlgII-28 from T1: synthetic peptide of the FlgII-28 region of Pst strain T1 flagellin (SEQ ID NO: 75) (QTMAIKNANDGMSLAQTAEGALQESTNILQRMRELAVQSRNDSNSSTDRDALNKEFTAMS; FlgII-28 region)	fully active	same level	–
FlgII-28 from DC3000: synthetic peptide of the FlgII-28 region of Pst strain DC3000 flagellin (SEQ ID NO: 77) (QTMAIKNANDGMSLAQTAEGALQESTNILQRMRELAVQSRNDSNSATDREALNKEFTAMS; FlgII-28 region)	fully active	same level	–
FlgII-28 from NY-T1: FlgII-28 region of NY-T1 flagellin, phenylalanine at position 16 instead of serine (SEQ ID NO: 76) (QTMAIKNANDGMSLAQTAEGALQESTNILQRMRELAVQFRNDSNSSTDRDALNKEFTAMS; FlgII-28 region)	–	inactive	–
ESTNILQRMRELAVQSRNDSNSATDREA (FlgII-28)	–	–	Increase of Solyc02g072470 transcript abundance [2, 5]: 1.5 fold; Increase of Solyc02g072470 transcript abundance [3, 5]: 4 fold
AVGTVKWFNAEKGFGFITPDDG (Csp22)	–	–	Effect on Solyc02g072470 transcript abundance [2, 6]: significantly induced; ROS response to Csp22, LA2109 compared to RG-PtoS [4]: higher ROS response; Effect on Solyc02g072470 transcript abundance [3, 6]: no effect
